Test results from US20190269705A1, “METHODS AND MATERIALS FOR TREATING GRAFT VERSUS HOST DISEASE” (Regents of the University of Minnesota, priority 2017, published 2019).
“Also recorded” adds a separate entry of the source.

How the values were obtained:
CD8 T cells = CD8 T cells activated on αCD3/CD28 + IL2, flow cytometry
Eμ B ALL cells = test: In vitro CAR T cell co-culture with target Eμ B ALL cells; format: cell-based, mouse; details: CAR-T cells treated with CB839 before co-culture
Excerpt: T cells were isolated from wild type C57BL6 spleens using the Pan T Cell isolation kit (Cat #: 130-095-130) and were activated on anti-CD3 anti-CD28 coated plates with IL2 for four days with or without CB839. On days 1 and 2, T cells were transduced with retrovirus produced by Plat-E cells carrying the CAR construct targeting CD19 with GFP reporter. On day 4, CAR T cells were washed three times to remove any drug remnants and plated to equal concentrations on a 96 well plate at 5×10^5 cells per well and serial dilutions thereof. 5×10^5 Emu cells, a CD19+ B cell acute lymphoblastic leukemia cell line
(Generously provided by Dr. Davila Lab) were then added to every well to assay cell numbers. CD19+ and GFP+events were stained and counted by flow for each well after 72 hours.

Th1 cells = test: RNA-Seq and gene set enrichment analysis, Th1; format: cell-based, mouse
Experimental: ATAC-Seq: Crude nuclei pellets were isolated as described elsewhere (see, e.g., Buenrostro et al., 2013 Nat Meth. 10(12):1213-1218) with modifications. Briefly, naïve CD4 T cells were skewed to Th1 and Th17 subsets in vitro with vehicle or in the presence of 500 nM CB839. At Day 5, T cells were re-isolated for CD4+ cells using Miltenyi CD4+ negative selection kit (Cat #: 130-104-454). 1×10^5 cells were removed for nuclei extraction in ATAC-Seq lysing buffer. Cells were exposed to Tn5+ adaptor proteins from Nextera DNA for 30 min at 37° C. and immediately placed on ice. Transposed eluate was amplified via PCR using Nextera DNA preparation kit (Illumina, Cat #: FC-121-1030), NEBNext High-fidelity 2× PCR mix (New England Labs, Cat #: M0541), and multiplexed (Illumina, Cat #: FC-121-1011). Samples were purified using Zymo DNA cleanup kit (Cat #: D4011). QC of samples was run on bioanalyzer before being sent for sequencing. RNA-Seq: Th1 and Th17 cells skewed with or without CB839 were isolated as previously described and total RNA extracted (Qiagen RNEasy Mini kit, Cat #: 74104). RNA was sent to VANTAGE core at Vanderbilt University and sequenced on HiSeq 2500. n=3 for each sample was analyzed. Samples were analyzed using the R program DESeq2. GSEA was performed using MSigDB.
Th1 and Th17 cells were skewed with or without CB839 over 5 days and total RNA extracted for RNAseq (Cat #: 74104). RNA was sent to VANderbilt Technologies for Advanced GEnomics (VANTAGE) core at Vanderbilt University. Libraries were prepared using 50 ng of total RNA using the NEBNext Ultra RNA Library Kit for Illumina (Cat #E7530) and sequenced on HiSeq3000 at 75 bp paired-end. Each sample was analyzed in triplicate. Sequencing reads were aligned against the Mouse GENCODE genome, Version M14 (Jan. 2017 freeze, GRCm38, Ensembl 89) using the Spliced Transcripts Alignment to a Reference (STAR) software (ref: 26187010 and 23104886). Reads were preprocessed and index using SAMtools (ref: 19505943). Mapped reads were assigned to gene features and quantified using featureCounts (ref: 24227677). Normalization and differential expression was performed using DESeq2 (Love et al., 2014). Skewed lymphocytes with and without CB839 were compared in both Th1 and Th17 groups. […] The top 200 most differentially expressed genes were used for unsupervised hierarchical cluster analysis and visualized using heatmap representations.

Th17 cells = test: CD4 T cells in Th17 skewing conditions, flow cytometry
[1] = CD8 T cells, five days stimulation
[2] = Th1 Cells: Decreased Pathways, HALLMARK_ALLOGRAFT_REJECTION
[3] = Th1 Cells: Decreased Pathways, HALLMARK_ANGIOGENESIS
[4] = Th1 Cells: Decreased Pathways, HALLMARK_APICAL_JUNCTION
[5] = Th1 Cells: Decreased Pathways, HALLMARK_APOPTOSIS
[6] = Th1 Cells: Decreased Pathways, HALLMARK_COMPLEMENT
[7] = Th1 Cells: Decreased Pathways, HALLMARK_EPITHELIAL_MESENCHYMAL_TRANSITION
[8] = Th1 Cells: Decreased Pathways, HALLMARK_ESTROGEN_RESPONSE_EARLY
[9] = Th1 Cells: Decreased Pathways, HALLMARK_INFLAMMATORY_RESPONSE
[10] = Th1 Cells: Decreased Pathways, HALLMARK_INTERFERON_GAMMA_RESPONSE
[11] = Th1 Cells: Decreased Pathways, HALLMARK_KRAS_SIGNALING_UP
[12] = Th1 Cells: Decreased Pathways, HALLMARK_UV_RESPONSE_DN
[13] = Th1 Cells: Increased Pathways, HALLMARK_DNA_REPAIR
[14] = Th1 Cells: Increased Pathways, HALLMARK_E2F_TARGETS
[15] = Th1 Cells: Increased Pathways, HALLMARK_ESTROGEN_RESPONSE_LATE
[16] = Th1 Cells: Increased Pathways, HALLMARK_G2M_CHECKPOINT
[17] = Th1 Cells: Increased Pathways, HALLMARK_GLYCOLYSIS
[18] = Th1 Cells: Increased Pathways, HALLMARK_IL2_STAT5_SIGNALING
[19] = Th1 Cells: Increased Pathways, HALLMARK_MITOTIC_SPINDLE
[20] = Th1 Cells: Increased Pathways, HALLMARK_MTORC1_SIGNALING
[21] = Th1 Cells: Increased Pathways, HALLMARK_MYC_TARGETS_V1
[22] = Th1 Cells: Increased Pathways, HALLMARK_P53_PATHWAY

## O=C(Cc1cccc(OC(F)(F)F)c1)Nc1ccc(CCCCc2nnc(NC(=O)Cc3ccccn3)s2)nn1 [CB839]
CD8 T cells; CD8 T cells, 4-5 days stimulation
  Granzyme B: increased levels of Granzyme B
CD8 T cells; [1]
  Eomes: increased levels
  Perforin: increased
  Tbet: increased levels
  markers of proliferation: increased levels
  portion of CD8 T cells expressing inhibitory receptors Lag3 and PD-1: increased
CD8 T cells; CTL in the presence of IL2
  phospho-S6: enhanced phospho-S6
Eμ B ALL cells
  elimination of B cell leukemia cells in vitro: greater ability to eliminate B cell leukemia cells in vitro
Th1 cells; Th1
  Pik3ip1 expression by RNA-Seq: most strongly downregulated
Th1 cells; Th1, CB839-treated
  compensation by GLS2 at the RNA level: No compensation by GLS2 at the RNA level
Th1 cells; Th1, CB839 vs vehicle
  direction of the 200 genes with the most altered expression: the majority showed increased expression
  gene set enrichment: cell cycle, mTORC1, Myc, IL2 signaling pathways: upregulation of cell cycle, mTORC1, Myc, IL2 signaling, and glycolysis pathways; also recorded: upregulation of specific pathways including those related to cell cycle, mTORC1, Myc, and IL2 signaling
Th1 cells; [2]
  # Genes in Overlap (k): 17
  k/K: 0.085
Th1 cells; [3]
  # Genes in Overlap (k): 6
  k/K: 0.1667
Th1 cells; [4]
  # Genes in Overlap (k): 16
  k/K: 0.08
Th1 cells; [5]
  # Genes in Overlap (k): 13
  k/K: 0.0807
Th1 cells; [6]
  # Genes in Overlap (k): 18
  k/K: 0.09
Th1 cells; [7]
  # Genes in Overlap (k): 13
  k/K: 0.065
Th1 cells; [8]
  # Genes in Overlap (k): 13
  k/K: 0.065
Th1 cells; [9]
  # Genes in Overlap (k): 18
  k/K: 0.09
Th1 cells; [10]
  # Genes in Overlap (k): 14
  k/K: 0.07
Th1 cells; [11]
  # Genes in Overlap (k): 20
  k/K: 0.1
Th1 cells; [12]
  # Genes in Overlap (k): 11
  k/K: 0.0764
Th1 cells; [13]
  # Genes in Overlap (k): 28
  k/K: 0.1867
Th1 cells; [14]
  # Genes in Overlap (k): 135
  k/K: 0.675
Th1 cells; [15]
  # Genes in Overlap (k): 30
  k/K: 0.15
Th1 cells; [16]
  # Genes in Overlap (k): 101
  k/K: 0.505
Th1 cells; [17]
  # Genes in Overlap (k): 34
  k/K: 0.17
Th1 cells; [18]
  # Genes in Overlap (k): 37
  k/K: 0.185
Th1 cells; [19]
  # Genes in Overlap (k): 56
  k/K: 0.28
Th1 cells; [20]
  # Genes in Overlap (k): 47
  k/K: 0.235
Th1 cells; [21]
  # Genes in Overlap (k): 43
  k/K: 0.215
Th1 cells; [22]
  # Genes in Overlap (k): 30
  k/K: 0.15
Th17 cells; Th17
  Myc protein: modestly increased Myc in Th1 but not Th17 cells
  proliferation: decreased cytokine production and proliferation only from Th17 cells
Th17 cells; Th17, Day 3
  H3K27 tri-methylation, initially: increased H3K27 tri-methylation
Th17 cells; Th17, after three days in culture
  proliferation: impaired proliferation
Th17 cells; Th17, day 5
  ROS (DCFDA): ROS increased
  expression of KLRG1 and PD1: decreased or unchanged
Th17 cells; Th17, day 5, normalized to total H3
  global H3K27 trimethylation: increased
Th17 cells; Th17, day 5, with IL2
  phospho-S6: decreased phosphor-S6; also recorded: decreased phospho-S6
Th17 cells; Th17, day 5, listed as CD839
  ROS (DCFDA): increased ROS
Th17 cells; Th17, day five
  global H3K4 trimethylation: increased
  total rRNA levels per cell: decreased
Th17 cells; Th17 skewing, 5 days, CB839 vs vehicle
  Th17 cytokine production and differentiation: decreased cytokine production and proliferation only from Th17 cells
Th17 cells; under Th17 conditions
  induction of Treg (Foxp3): failed to do so
